Experimental data published in article PMC5513211, “PA-6 inhibits inward rectifier currents carried by V93I and D172N gain-of-function KIR2.1 channels, but increases channel protein expression” (Journal of Biomedical Science, 2017).
Positions count from the first letter of the chain named. Where two headings read alike, the source gives them in different places. Each block holds one compound with its values, some of them ahead of it.

Experiments:
Kv7.1 channel, V307L = conditions: cited from earlier work
[1] = tested on: WT, V93I and D172N KIR2.1 channels; assay: Immunofluorescence microscopy of KIR2.1 localization in MES-1 cells; format: cell-based, human; conditions: 5 μM, 24 h
Description: HEK293T and MES-1 cells were cultured on pre-coated (0.1% gelatin) glass coverslips and transfected using Lipofectamin (Invitrogen, Breda, The Netherlands). Cell fixation, immunolabeling and imaging were performed exactly as described earlier. […] HEK293T cells were imaged by confocal microscopy using a Zeiss LSM 700 confocal microscope (Carl Zeiss Microscopy GmbH, Germany) equipped with a 63× oil immersion objective (NA 1.4). […] MES-1 cells were imaged using a conventional Nikon eclipse 80i light microscopy equipped with a 40× objective (NA 0.75).

[2] = tested on: WT, V93I and D172N KIR2.1 channels; assay: Confocal immunofluorescence microscopy of KIR2.1 localization in HEK293T cells; format: cell-based, human; conditions: 24 h, WT or mutant
Description: HEK293T and MES-1 cells were cultured on pre-coated (0.1% gelatin) glass coverslips and transfected using Lipofectamin (Invitrogen, Breda, The Netherlands). Cell fixation, immunolabeling and imaging were performed exactly as described earlier. Antibodies used were anti-KIR2.l (1:250; Santa Cruz Biotechnology, cat. no. sc-18708) and anti-Pan Cadherin (1:800, Sigma-Aldrich, St. Louis MO, USA, cat. No. C1821). HEK293T cells were imaged by confocal microscopy using a Zeiss LSM 700 confocal microscope (Carl Zeiss Microscopy GmbH, Germany) equipped with a 63× oil immersion objective (NA 1.4). Excitation was performed with an air-cooled Argon ion laser (LASOS, RMC 7812Z, 488 nm) for GFP and a HeNE (LASOS, SAN 7450A, 543 nm) laser for DyLight. MES-1 cells were imaged using a conventional Nikon eclipse 80i light microscopy equipped with a 40× objective (NA 0.75).

D172N KIR2.1 [3] = target: T1, D172N KIR2.1 (Homo sapiens, UniProt P63252, D172N); assay: Whole cell patch clamp, D172N KIR2.1 currents; format: cell-based; conditions: whole cell mode
T1 construct: expressed in transfected cells; host or cells: HEK293T
T1 sequence (P63252 1-427 D172N): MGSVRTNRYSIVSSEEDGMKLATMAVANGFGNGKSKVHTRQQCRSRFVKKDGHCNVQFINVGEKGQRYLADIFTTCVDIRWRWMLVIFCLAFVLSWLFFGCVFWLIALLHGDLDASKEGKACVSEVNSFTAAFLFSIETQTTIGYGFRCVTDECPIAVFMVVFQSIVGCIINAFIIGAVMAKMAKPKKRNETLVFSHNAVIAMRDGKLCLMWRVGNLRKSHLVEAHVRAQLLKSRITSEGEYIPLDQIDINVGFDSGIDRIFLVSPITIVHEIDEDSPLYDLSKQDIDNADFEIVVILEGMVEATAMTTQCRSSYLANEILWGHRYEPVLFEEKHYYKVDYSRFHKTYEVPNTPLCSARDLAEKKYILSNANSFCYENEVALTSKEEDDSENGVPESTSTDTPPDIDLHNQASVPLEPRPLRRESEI
Description: (§1) Mutations V93I and D172N were engineered into a human KCNJ2-pcDNA3 expression construct, using the QuikChange II XL Site-Directed Mutagenesis Kit (Stratagene, La Jolla, CA) and custom designed primers. The presence of the introduced mutations was confirmed by Sanger sequencing.
(§2) Whole cell patch clamp measurements were done as described before using an AxoPatch 200B amplifier controlled by pClamp9 software (Molecular devices, Sunnyvale, CA, USA) at 21 °C. Whole cell IKIR2.1 measurements were performed by applying 1 s test pulses ranging between −120 and +30 mV, in 10 mV increments, from a holding potential of −40 mV, and with series resistance compensation of at least 70%. Steady state current at the end of the pulse was normalized to cell capacitance and plotted versus test potential (corrected for liquid junction potential). Extracellular solution contained 140 mM NaCl, 5 mM KCl, 1 mM CaCl2, 1 mM MgCl2, 6 mM glucose, 17.5 mM NaHCO3, 15 mM HEPES, pH 7.4/NaOH. Pipette solution contained 125 mM potassium gluconate, 10 mM KCl, 5 mM HEPES, 5 mM EGTA, 2 mM MgCl2, 0.6 mM CaCl2, 4 mM Na2ATP, pH 7.20/KOH.

V93I KIR2.1 [4] = target: T2, V93I KIR2.1 (Homo sapiens, UniProt P63252, V93I); assay: Western blot of KIR2.1 expression, transiently transfected HEK293T cells, V93I; format: cell-based; conditions: 24 h
T2 construct: expressed in transfected cells; host or cells: HEK293T
T2 sequence (P63252 1-427 V93I): T1 sequence (P63252 1-427 D172N) with V93I, N172D
Description: (§3) HEK293T cells were grown in 60 mm culture dishes containing 3 mL DMEM supplemented with 10% FCS, L-Glutamine and Pen-Strep, and transfected using linear polyethylenimine (PEI) (PolysciencesInc, Eppelheim, Germany) as described earlier. Cell lysates were prepared in buffer D (20 mM HEPES, 125 mM NaCl, 10% glycerol, 1 mM EDTA, 1 mM EGTA, 1 mM dithiothreitol, and 1% Triton X-100, pH 7.6, supplemented with 1 mM PMSF and 10 μg/mL aprotinin). 20 μg protein lysate was separated by 10% SDS-PAGE and blotted onto nitrocellulose membrane. Ponceau staining was used to reveal equal protein loading and subsequent quantification. Blots were blocked with 5% (v/v) […] in TBST (20 mM Tris-HCl pH 8.0, 150 mM NaCl, 0.05% (v/v) Tween-20) for 1 h at room temperature. KIR2.1 WT and mutants were detected by N-terminal KIR2.1 antibody (Santa Cruz Biotechnology, Dallas Tx, USA, cat. No. sc-18708) and peroxidase-conjugated donkey anti-goat secondary antibody (Jackson ImmunoResearch, West Grove, PA, cat. No. 705-035-003) followed by ECL detection procedure (GE Healthcare, Hoevelaken, The Netherlands). For quantification purposes, untransfected HEK293T cells were used as blank and protein levels were normalized to ponceau staining levels. Differences between group averages were tested by using a one-way ANOVA with a Bonferroni’s post-hoc test.

IK1 / KIR2.1 ion channel = tested on: IK1 / KIR2.1 ion channel; design: method as in PMID 23625347; conditions: inside-out patch clamp methodology; read-out: IC50, IK1 inhibition; cited from earlier work
WT KIR2.1 [5] = conditions: 10 μM, cells stably expressing GFP-tagged KIR2.1; cited from earlier work
D172N KIR2.1 [6] = target: T1, D172N KIR2.1; assay: Western blot of KIR2.1 expression, transiently transfected HEK293T cells, D172N; format: cell-based; conditions: 24 h
Description: as §3

WT KIR2.1 [7] = target: T3, WT KIR2.1 (Homo sapiens, UniProt P63252); assay: Inside-out patch clamp, ramp protocol, WT KIR2.1 currents; format: cell-based; conditions: inside-out mode, HEK293T, 21 °C
T3 construct: expressed in transfected cells; host or cells: HEK293T
T3 sequence (P63252 1-427): T1 sequence (P63252 1-427 D172N) with N172D
Excerpt: as §1
(§4) HEK293T cells were transfected with WT, V93I or D172N constructs together with a GFP expression construct to enable detection of transfected cells. Inside-out patch clamp measurements were made using a HEKA EPC-10 Double Plus amplifier controlled by PatchMaster 2.10 software (HEKA, Lambrecht/Pfalz, Germany) at 21 °C. To record WT, V93I and D172N KIR2.1 currents, inside-out patch-clamp measurements were performed using a ramp protocol ranging from −100 to +100 mV in 5 s from a holding potential of −40 mV. Excised patches were placed in close proximity to the inflow region of the perfusion chamber. Bath solution contained 125 mM KCl, 4 mM EDTA (2K), 7.2 mM K2HPO4, 2.8 mM KH2PO4, pH 7.20/KOH. Pipette solution contained 145 mM KCl, 1 mM CaCl2, 5 mM HEPES, pH 7.40/KOH. Measurements were started following washout of polyamines/Mg^2+ from the channel pore observed by the disappearance of current rectification. For IC50 curves, fractional block at −80 and +50 mV was determined by dividing current levels obtained with PA-6 containing solutions by current levels of control traces recorded in the absence of PA-6.

WT KIR2.1 [8] = target: T3, WT KIR2.1; assay: Whole cell patch clamp, WT KIR2.1 currents; format: cell-based; conditions: whole cell mode
Description: as §1, §2

D172N KIR2.1 [9] = target: T1, D172N KIR2.1; assay: Inside-out patch clamp, ramp protocol, D172N KIR2.1 currents; format: cell-based; conditions: inside-out mode; for IC50: HEK293T, 21 °C
Excerpt: as §1, §4

WT KIR2.1 [10] = target: T3, WT KIR2.1; assay: Western blot of KIR2.1 expression, transiently transfected HEK293T cells, WT; format: cell-based; conditions: 24 h
Description: as §3

V93I KIR2.1 [11] = target: T2, V93I KIR2.1; assay: Whole cell patch clamp, V93I KIR2.1 currents; format: cell-based; conditions: whole cell mode
Description: as §1, §2

V93I KIR2.1 [12] = target: T2, V93I KIR2.1; assay: Inside-out patch clamp, ramp protocol, V93I KIR2.1 currents; format: cell-based; conditions: inside-out mode, HEK293T, 21 °C
Excerpt: as §1, §4

[13] = tested on: Kv11.1 (hERG) channel, WT and N558K; conditions: N558K less sensitive than WT; cited from earlier work
WT KIR2.1 [14] = conditions: read-out: IC50 (sensitivity for chloroquine); whole cell mode; cited from earlier work
D172N KIR2.1 [15] = conditions: read-out: IC50 (sensitivity for chloroquine); whole cell mode; cited from earlier work
[16] = at −50 mV, read-out: Inhibition of outward IK1
[17] = at −110 mV, read-out: Inhibition of inward IK1
[18] = at +50 mV, read-out: IC50, outward current
[19] = at −80 mV, read-out: IC50, inward current

SMILES: OC(c1cc(C(F)(F)F)nc2c(C(F)(F)F)cccc12)C1CCCCN1 (centres unmarked) [mefloquine]
Sensitivity of V307L Kv7.1 versus WT variant (Kv7.1 channel, V307L): equally sensitive

inhibition at 1 µM (D172N KIR2.1 [3]; [16]): 10 ± 6%
inhibition at 1 µM (D172N KIR2.1 [3]; [17]): 30 ± 10%
inhibition at 3 µM (D172N KIR2.1 [3]; [16]): 86 ± 7%
inhibition at 3 µM (D172N KIR2.1 [3]; [17]): 83 ± 1%
IC50 (D172N KIR2.1 [3]): 1000 to 3000 nM
Increase of KIR2.1 expression level (V93I KIR2.1 [4]; 5 μM): 3.9 ± 0.9 fold
Increase of KIR2.1 expression level (D172N KIR2.1 [6]; 5 μM): 4.8 ± 2.0 fold
IC50 (WT KIR2.1 [7]; [18]): 35.5 nM
IC50 (WT KIR2.1 [7]; [19]): 52.9 nM
inhibition at 1 µM (WT KIR2.1 [8]; [16]): 28 ± 36%
inhibition at 1 µM (WT KIR2.1 [8]; [17]): 30 ± 16%
inhibition at 3 µM (WT KIR2.1 [8]; [16]): 94 ± 6%
inhibition at 3 µM (WT KIR2.1 [8]; [17]): 68 ± 15%
IC50 (WT KIR2.1 [8]): 1000 to 3000 nM
IC50 (D172N KIR2.1 [9]; [18]): 129 nM
IC50 (D172N KIR2.1 [9]; [19]): 109 nM
Increase of KIR2.1 expression level (WT KIR2.1 [10]; 5 μM): 6.3 ± 1.5 fold
inhibition at 1 µM (V93I KIR2.1 [11]; [16]): 18 ± 20%
inhibition at 1 µM (V93I KIR2.1 [11]; [17]): 28 ± 14%
inhibition at 3 µM (V93I KIR2.1 [11]; [16]): 77 ± 29%
inhibition at 3 µM (V93I KIR2.1 [11]; [17]): 64 ± 4%
IC50 (V93I KIR2.1 [11]): 1000 to 3000 nM
IC50 (V93I KIR2.1 [12]; [18]): 43.6 nM
IC50 (V93I KIR2.1 [12]; [19]): 58 nM
SMILES: N=C(Nc1ccc(OCCCCCOc2ccc(NC(=N)c3ccccc3)cc2)cc1)c1ccccc1 [PA-6]
Subcellular location of KIR2.1 channels [1]: resulted in intracellular accumulation
Subcellular location of KIR2.1 channels ([2]; 1 μM): induced an intracellular increase of the channel proteins in small aggregates
Subcellular location of KIR2.1 channels ([2]; 5 μM): further increased the level of intracellular accumulation
Effect on KIR2.1 expression level at lower concentrations (V93I KIR2.1 [4]; 0.2 and 1 μM): did not result in significant increased expression
IC50 (IK1 / KIR2.1 ion channel): 14 nM
Effect on WT KIR2.1 expression (WT KIR2.1 [5]): able to enhance expression of WT KIR2.1
Effect on KIR2.1 expression level at lower concentrations (D172N KIR2.1 [6]; 0.2 and 1 μM): did not result in significant increased expression
Sensitivity of D172N channels relative to WT and V93I (D172N KIR2.1 [9]): approximately two to three fold less sensitive
Effect on KIR2.1 expression level at lower concentrations (WT KIR2.1 [10]; 0.2 and 1 μM): did not result in significant increased expression

SMILES: CC[C@H]1CN2CC[C@H]1C[C@@H]2[C@@H](O)c1ccnc2ccc(OC)cc12 [hydroquinidine]
Difference in IC50 values for WT and N558K Kv11.1 channels [13]: 3.5 fold

SMILES: CCS(=O)(=O)N(C)[C@H]1c2cc(C#N)ccc2OC(C)(C)[C@@H]1O [Chromanol293B]
Increase of IC50 value by V307L mutation (Kv7.1 channel, V307L; V307L versus WT Kv7.1): 7 fold

SMILES: CCN(CC)CCCC(C)Nc1ccnc2cc(Cl)ccc12 (centres unmarked) [chloroquine]
IC50 (WT KIR2.1 [14]): 1400 to 2400 nM
IC50 (D172N KIR2.1 [15]): 1200 to 3300 nM
